“And” between values parts separate entries of the source, which are not always exact repeats. Identical values can stand only once.
Settings: Liquid, Transpiration method

CCOC(=O)C(C)O (racemic) [DL-ethyl lactate]
Settings	vapor or sublimation pressure
274.6 K	0.0432 kPa
276.6 K	0.0506 kPa
279.6 K	0.0659 kPa
281.4 K	0.0743 kPa
283.6 K	0.0901 kPa
284.6 K	0.095 kPa
285.8 K	0.1032 kPa
287.6 K	0.1266 kPa and 0.1265 kPa
288.4 K	0.1302 kPa
290.2 K	0.1492 kPa
290.3 K	0.1456 kPa
291.1 K	0.162 kPa
293.5 K	0.1923 kPa
296.4 K	0.2396 kPa
298.5 K	0.2828 kPa
301.5 K	0.3655 kPa
302.5 K	0.3751 kPa
304.5 K	0.4491 kPa
305.3 K	0.4793 kPa
307.2 K	0.5251 kPa
308.2 K	0.5766 kPa
310.1 K	0.6332 kPa and 0.6327 kPa
311.3 K	0.6892 kPa

CCCCOC(=O)C(C)O (stereo not given) [butyl 2-hydroxypropanoate]
Settings	vapor or sublimation pressure [kPa]
273.6 K	0.00576
274.1 K	0.00627
276.6 K	0.00823
277.2 K	0.00868
279.2 K	0.00996
280.7 K	0.0112
281.8 K	0.0133
283.2 K	0.0141
285.4 K	0.0178
287.3 K	0.0215
290.3 K	0.0272
291.8 K	0.0324
293.3 K	0.0375
296.2 K	0.0442
299.2 K	0.0601
302.2 K	0.0712
305.1 K	0.0952
308.1 K	0.1148
308.5 K	0.1253
311 K	0.1483
313 K	0.1639
314.5 K	0.1944
317 K	0.2271
318.9 K	0.2521
322.9 K	0.3526

CCOC(=O)[C@@H](C)O [ethyl D-lactate]
Settings	vapor or sublimation pressure
274.4 K	0.0419 kPa
276.4 K	0.0495 kPa
278.2 K	0.0568 kPa
280.3 K	0.0665 kPa
282.3 K	0.0765 kPa
283.2 K	0.0834 kPa
285.4 K	0.0995 kPa
286.2 K	0.1081 kPa
289.2 K	0.1358 kPa
291.3 K	0.1583 kPa
293.2 K	0.1868 kPa
295.2 K	0.2114 kPa
297.3 K	0.2551 kPa
298.4 K	0.2762 kPa and 0.2718 kPa
299.2 K	0.2886 kPa
301.3 K	0.3466 kPa
303.2 K	0.3937 kPa
305.2 K	0.4603 kPa
306.2 K	0.479 kPa
307.3 K	0.5225 kPa
308.2 K	0.5581 kPa
308.3 K	0.5768 kPa
310.3 K	0.6462 kPa
311.3 K	0.7011 kPa
313.2 K	0.7624 kPa
314.2 K	0.8127 kPa
316.3 K	0.9517 kPa
318.2 K	1.048 kPa

CC(C)OC(=O)[C@H](C)O [isopropyl (S)-2-hydroxypropionate]
Settings	vapor or sublimation pressure [kPa]
283.4 K	0.0862
288.3 K	0.1239
293.3 K	0.1774
298.3 K	0.2401
303.2 K	0.3239
306.8 K	0.4055

CCCCCOC(=O)C(C)O (stereo not given) [pentyl 2-hydroxypropanoate]
Settings	vapor or sublimation pressure [kPa]
303.4 K	0.026
305.3 K	0.0299
307.3 K	0.038
309.3 K	0.0421
311.4 K	0.0517
313.3 K	0.0565
315.4 K	0.0714
317.4 K	0.0833
319.4 K	0.0946
321.4 K	0.1069
323.4 K	0.1269
325.4 K	0.1418
327.4 K	0.1665
329.4 K	0.1855
331.3 K	0.2174
333.3 K	0.2476
335.3 K	0.2794
337.3 K	0.3145
339.3 K	0.3534
341.3 K	0.4164
343.2 K	0.4684

CCCOC(=O)C(C)O (stereo not given) [propyl 2-hydroxypropanoate]
Settings	vapor or sublimation pressure
273.5 K	0.0152 kPa
274.6 K	0.0171 kPa
276.2 K	0.019 kPa
277.7 K	0.0222 kPa
279.9 K	0.0274 kPa
282.1 K	0.0332 kPa
283.3 K	0.0359 kPa
286.2 K	0.0489 kPa and 0.048 kPa
287.8 K	0.055 kPa
290.3 K	0.0664 kPa
292.3 K	0.0793 kPa
294.3 K	0.09 kPa
298.2 K	0.1194 kPa
299.2 K	0.1376 kPa and 0.1392 kPa
301.2 K	0.1565 kPa
301.4 K	0.1625 kPa
303.3 K	0.1866 kPa
304.2 K	0.1915 kPa
305.3 K	0.2068 kPa
307.9 K	0.268 kPa
308.1 K	0.256 kPa
310.3 K	0.3053 kPa
312.1 K	0.3377 kPa
313.4 K	0.3713 kPa
313.6 K	0.3614 kPa
315.4 K	0.4264 kPa
316 K	0.4342 kPa
317 K	0.4541 kPa
317.4 K	0.4789 kPa
319.4 K	0.5467 kPa
320 K	0.5661 kPa
321.4 K	0.6113 kPa
323 K	0.6633 kPa
323.4 K	0.7043 kPa
325.4 K	0.8342 kPa
327.3 K	0.9235 kPa
330.3 K	1.079 kPa

Reference: the NIST ThermoML archive (doi:10.1016/j.jct.2018.07.029)
